Measurements as given in patent US11214803B2, “Modulators of YAP1 expression” (Ionis Pharmaceuticals, Inc., priority 2019, dated 2022).
Strand notation (5' to 3'): a small letter for the sugar, then the base; units joined by * are phosphorothioate-linked, units joined directly phosphodiester-linked; [ ] holds rarer units or linkages, { } end groups; capitals alone tell only the bases. k = constrained ethyl (cEt); [5mC] = 5-methylcytosine; d = 2'-deoxy (DNA)

Tests used:
[1] = tested on: SNU449 cells; assay: Cell proliferation assay in SNU449 cells in combination with sorafenib, CellTiter-Glo (Example 48); assay type: cell-based, human; conditions: 144 hours
Description: Modified oligonucleotides described in the studies above were tested at various doses in hepatocellular carcinoma cell line SNU449. ION No. 792169, described herein above, was used as a control modified oligonucleotide. ION No. 715487 was used to target Yap1 RNA. […] After approximately 48 hours, Yap1 mRNA levels were measured.
144 hours post treatment, proliferation of SNU449 cells was measured using the luminescent cell viability CellTiter-Glo® 2.0 Assay (Promega). Results are presented in the tables below as percent control of the amount of luminescence in samples treated with modified oligonucleotides relative to untreated control cells (% UTC).

[2] = Tolerability in Balb/c mice, plasma chemistry markers (Example 10); assay type: in vivo; conditions: male Balb/c mice, 50 mg/kg subcutaneously twice a week for four weeks, day 26
Description: (§1) Balb/c mice were treated with modified oligonucleotides selected from studies described above and evaluated for changes in the levels of various plasma chemistry markers.
(§2) Groups of male Balb/c mice at 4-6 weeks of age (obtained from Taconic) were injected subcutaneously twice a week for four weeks (for a total of 8 treatments) with 50 mg/kg of modified oligonucleotides. One group of male Balb/c mice was injected with PBS. Mice were euthanized on day 26 post start of treatment (24 hours following the final administration).

[3] = Tolerability in Balb/c mice, body and organ weights (Example 11); assay type: in vivo; conditions: 50 mg/kg subcutaneously twice a week for four weeks, end of study
Procedure, shortened: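 Male Balb/c mice, 4-6 weeks old, dosed subcutaneously with 50 mg/kg modified oligonucleotide twice weekly for four weeks (8 doses), PBS group as control. Euthanized day 26, 24 hours after the last dose; body and organ weights recorded at study end.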

[4] = Tolerability in CD-1 mice, body and organ weights (Example 15); assay type: in vivo; conditions: male CD-1 mice, 50 mg/kg s.c. twice a week for four weeks (8 treatments), end of study (day 26)
Description: Groups of four male CD-1 mice at 4-5 weeks of age (obtained from Charles River) were injected subcutaneously twice a week for four weeks (for a total of 8 treatments) with 50 mg/kg of modified oligonucleotides. One group of male CD-1 mice was injected with PBS. Mice were euthanized on day 26 post start of treatment (24 hrs following the final administration).
Body weights of CD-1 mice were measured at the end of the study, and the average body weight for each group is presented in the table below. Modified oligonucleotides that caused any changes in organ weights outside the expected range for modified oligonucleotides were excluded from further studies.

[5] = tested on: Yap1 mRNA; assay: Antisense inhibition of human Yap1 in A-431 cells by cEt gapmers, single dose (Example 2, RTS4814); assay type: cell-based
Procedure, shortened: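 Single-dose knockdown screen of 3-10-3 cEt phosphorothioate gapmers at 2,000 nM added by free uptake to A-431 cells. After roughly 48 h, RNA was isolated and Yap1 transcript measured by RT-qPCR, with results given as % UTC.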

[6] = tested on: Yap1 mRNA; assay: Antisense inhibition of human Yap1 in A-431 cells by cEt gapmers, single dose (Example 4, RTS4814); assay type: cell-based
Procedure, shortened: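 Values are % UTC: Yap1 mRNA by quantitative RT-PCR, normalized to RIBOGREEN total RNA. Cells were exposed ~48 h to 2,000 nM oligonucleotide without transfection. Oligonucleotides were 16-nucleoside gapmers with three cEt nucleosides per wing, ten-deoxy gap, P=S linkages throughout.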

[7] = Tolerability in Balb/c mice, plasma chemistry markers (Example 12); assay type: in vivo; conditions: 50 mg/kg subcutaneously twice a week for four weeks
Description: as §1
as §2, with “6-7” for “4-6”

[8] = oligonucleotide at 0.04 uM, sorafenib 0 uM
[9] = oligonucleotide at 0.04 uM, sorafenib 0.37 uM
[10] = oligonucleotide at 0.04 uM, sorafenib 3.33 uM
[11] = oligonucleotide at 0.04 uM, sorafenib 10 uM
[12] = oligonucleotide at 0.04 uM, sorafenib […]
[13] = oligonucleotide at 0.2 uM, sorafenib 0 uM
[14] = oligonucleotide at 0.2 uM, sorafenib 0.37 uM
[15] = oligonucleotide at 0.2 uM, sorafenib 3.33 uM
[16] = oligonucleotide at 0.2 uM, sorafenib 10 uM
[17] = oligonucleotide at 0.2 uM, sorafenib […]
[18] = oligonucleotide at 1 uM, sorafenib 0 uM
[19] = oligonucleotide at 1 uM, sorafenib 0.37 uM
[20] = oligonucleotide at 1 uM, sorafenib 3.33 uM
[21] = oligonucleotide at 1 uM, sorafenib 10 uM
[22] = oligonucleotide at 1 uM, sorafenib […]
[23] = oligonucleotide at 5 uM, sorafenib 0 uM
[24] = oligonucleotide at 5 uM, sorafenib 0.37 uM
[25] = oligonucleotide at 5 uM, sorafenib 3.33 uM
[26] = oligonucleotide at 5 uM, sorafenib 10 uM
[27] = oligonucleotide at 5 uM, sorafenib […]

| Substance | Antiproliferative effect (cell proliferation, luminescence) [1, 8] [% UTC] | Antiproliferative effect (cell proliferation, luminescence) [1, 9] [% UTC] | Antiproliferative effect (cell proliferation, luminescence) [1, 10] [% UTC] | Antiproliferative effect (cell proliferation, luminescence) [1, 11] [% UTC] | Antiproliferative effect (cell proliferation, luminescence) [1, 12] [% UTC] | Antiproliferative effect (cell proliferation, luminescence) [1, 13] [% UTC] | Antiproliferative effect (cell proliferation, luminescence) [1, 14] [% UTC] | Antiproliferative effect (cell proliferation, luminescence) [1, 15] [% UTC] | Antiproliferative effect (cell proliferation, luminescence) [1, 16] [% UTC] | Antiproliferative effect (cell proliferation, luminescence) [1, 17] [% UTC] | Antiproliferative effect (cell proliferation, luminescence) [1, 18] [% UTC] | Antiproliferative effect (cell proliferation, luminescence) [1, 19] [% UTC] | Antiproliferative effect (cell proliferation, luminescence) [1, 20] [% UTC] | Antiproliferative effect (cell proliferation, luminescence) [1, 21] [% UTC] | Antiproliferative effect (cell proliferation, luminescence) [1, 22] [% UTC] | Antiproliferative effect (cell proliferation, luminescence) [1, 23] [% UTC] | Antiproliferative effect (cell proliferation, luminescence) [1, 24] [% UTC] | Antiproliferative effect (cell proliferation, luminescence) [1, 25] [% UTC] | Antiproliferative effect (cell proliferation, luminescence) [1, 26] [% UTC] | Antiproliferative effect (cell proliferation, luminescence) [1, 27] [% UTC] | further results |
| --- | --- | --- | --- | --- | --- | --- | --- | --- | --- | --- | --- | --- | --- | --- | --- | --- | --- | --- | --- | --- | --- |
| 715487 (kA*kT*kT*dA*d[5mC]*dT*dT*d[5mC]*dA*dT*dA*dG*d[5mC]*kT*kT*kA) [compound 715487] | 98 | 102 | 27 | 2 | 93 | 93 | 94 | 12 | 2 | 77 | 84 | 83 | 5 | 1 | 45 | 64 | 64 | 3 | 1 | 23 | ALT (U/L) [2]: 79 U/L; AST (U/L) [2]: 96 U/L; TBIL [2]: 0.13 mg/dL; Kidney weight [3]: 0.42 g; Liver weight [3]: 1.46 g; Spleen weight [3]: 0.15 g; body weight [3]: 27 g; Kidney weight [4]: 0.59 g; Liver weight [4]: 2.24 g; Spleen weight [4]: 0.21 g; body weight [4]: 41 g |
| 958499 (ATTAGAGTATGTGGCA; 3-10-3 cEt gapmer, further chemistry not given here) [compound 958499] | – | – | – | – | – | – | – | – | – | – | – | – | – | – | – | – | – | – | – | – | YAP1 (% UTC) ([5]; Table 32, Yap1 mRNA, percent of untreated control, 3-10-3 cEt gapmers targeting SEQ ID NO.: 1, and 2): 2 % UTC; YAP1 (% UTC) ([5]; Table 33, Yap1 mRNA, percent of untreated control, 3-10-3 cEt gapmers targeting SEQ ID NO.: 1, and 2): 4 % UTC; YAP1 (% UTC) ([5]; Yap1 mRNA as percent of untreated control, A-431 cells, 3-10-3 cEt gapmers targeting SEQ ID NO.: 1, and 2, Table 30): 1 % UTC; YAP1 (% UTC) ([5]; Yap1 mRNA as percent of untreated control, A-431 cells, 3-10-3 cEt gapmers targeting SEQ ID NO.: 1, and 2, Table 31): 1 % UTC; YAP1 (% UTC) ([6]; Yap1 mRNA remaining as percent of untreated control, 3-10-3 cEt gapmers, A-431 cells, Table 36): 1 % UTC; YAP1 (% UTC) ([6]; Yap1 mRNA remaining as percent of untreated control, 3-10-3 cEt gapmers, A-431 cells, Table 37): 2 % UTC; ALT [7]: 142 U/L; AST [7]: 146 U/L; BUN [7]: 26 mg/dL; TBIL [7]: 0.17 mg/dL |
| 958499 (kA*kT*kT*dA*dG*dA*dG*dT*dA*dT*dG*dT*dG*kG*k[5mC]*kA) [Compound 958499] | – | – | – | – | – | – | – | – | – | – | – | – | – | – | – | – | – | – | – | – | YAP1 (% UTC) ([5]; Table 18, A-431 cells, 5,000 cells per well, free uptake, 2,000 nM modified oligonucleotide, approx. 48 hours, RTS4814, normalized to RIBOGREEN, Yap1 mRNA as percent of untreated control): 1 % UTC; YAP1 (% UTC) ([5]; Table 19, A-431 cells, 5,000 cells per well, free uptake, 2,000 nM modified oligonucleotide, approx. 48 hours, RTS4814, normalized to RIBOGREEN, Yap1 mRNA as percent of untreated control): 2 % UTC; YAP1 (% UTC) ([5]; Table 20, Yap1 mRNA, percent of untreated control, 3-10-3 cEt gapmers targeting SEQ ID NO.: 1 and 2): 1 % UTC; YAP1 (% UTC) ([5]; Table 21, Yap1 mRNA, percent of untreated control, 3-10-3 cEt gapmers targeting SEQ ID NO.: 1 and 2): 1 % UTC; YAP1 (% UTC) ([5]; Table 22, Yap1 mRNA as percent of untreated control, 3-10-3 cEt gapmers, single dose): 1 % UTC; YAP1 (% UTC) ([5]; Table 23, Yap1 mRNA as percent of untreated control, 3-10-3 cEt gapmers, single dose): 2 % UTC; YAP1 (% UTC) ([5]; Table 24, Yap1 mRNA as percent of untreated control, 3-10-3 cEt gapmers targeting SEQ ID NO.: 1, and 2): 2 % UTC; YAP1 (% UTC) ([5]; Table 25, Yap1 mRNA as percent of untreated control, 3-10-3 cEt gapmers targeting SEQ ID NO.: 1, and 2): 1 % UTC; YAP1 (% UTC) ([6]; Table 14, A-431 cells, 5,000 cells per well, free uptake, 2,000 nM, approximately 48 hours, RTS4814, normalized to RIBOGREEN, Yap1 mRNA relative to untreated control, * = targets amplicon region of primer probe set): 2 % UTC; YAP1 (% UTC) ([6]; Table 15, A-431 cells, 5,000 cells per well, free uptake, 2,000 nM, approximately 48 hours, RTS4814, normalized to RIBOGREEN, Yap1 mRNA relative to untreated control, * = targets amplicon region of primer probe set): 1 % UTC; YAP1 (% UTC) ([6]; Table 16, A-431 cells, 5,000 cells per well, free uptake, 2,000 nM, approximately 48 hours, RTS4814, normalized to RIBOGREEN, Yap1 mRNA relative to untreated control cells): 2 % UTC; YAP1 (% UTC) ([6]; Table 17, A-431 cells, 5,000 cells per well, free uptake, 2,000 nM, approximately 48 hours, RTS4814, normalized to RIBOGREEN, Yap1 mRNA relative to untreated control cells): 3 % UTC |
| CGCCGATAAGGTACAC (cEt gapmer, phosphorothioate backbone, further chemistry not given here) [ION 792169, reference compound] | 99 | 103 | 51 | 3 | 97 | 97 | 100 | 30 | 4 | 91 | 97 | 95 | 27 | 3 | 89 | 86 | 84 | 6 | 1 | 68 | – |
